# Source: patent publication US10077264B2, “Derivatives and methods of treating hepatitis B infections” (Novira Therapeutics, Inc., priority 2014, dated 2018)
# Test system: HBV replication in HepG2.2.15 cells
# Assay: HBV replication inhibition assay (BDNA assay)
# Assay type: cell-based
# Conditions: HepG2.2.15 cells, 6 days, encapsidated HBV DNA in supernatant; read-out: Activity in BDNA-assay (EC50)
# Description: HBV replication inhibition by the compounds of this invention could be determined in cells infected or transfected with HBV, or cells with stably integrated HBV, such as HepG2.2.15 cells (Sells et al. 1987). In this example, HepG2.2.15 cells were maintained in cell culture medium containing 10% fetal bovine serum (FBS), Geneticin, L-glutamine, penicillin and streptomycin. HepG2.2.15 cells could be seeded in 96-well plates at a density of 40,000 cells/well and be treated with serially diluted compounds at a final DMSO concentration of 0.5% either alone or in combination by adding drugs in a checker box format. Cells were incubated with compounds for three days, after which medium was removed and fresh medium containing compounds was added to cells and incubated for another three days. At day 6, supernatant was removed and treated with DNase at 37° C. for 60 minutes, followed by enzyme inactivation at 75° C. for 15 minutes. Encapsidated HBV DNA was released from the virions and covalently linked HBV polymerase by incubating in lysis buffer (Affymetrix QS0010) containing […] proteinase K at 50° C. for 40 minutes. HBV DNA was denatured by addition of 0.2 M NaOH and detected using a branched DNA (BDNA) QuantiGene assay kit according to manufacturer recommendation (Affymetrix). HBV DNA levels could also be quantified using qPCR, based on amplification of encapsidated HBV DNA extraction with QuickExtraction Solution (Epicentre Biotechnologies) and amplification of HBV DNA using HBV specific PCR probes that can hybridize to HBV DNA and a fluorescently labeled probe for quantitation. In addition, cell viability of HepG2.2.15 cells incubated with test compounds alone or in combination was determined by using CellTitre-Glo reagent according to the manufacturer protocol (Promega). The mean background signal from wells containing only culture medium was subtracted from all other samples, and percent inhibition at each compound concentration was calculated by normalizing to signals from HepG2.2.15 cells treated with 0.5% DMSO using equation E1. % inhibition=(DMSOave−Xi)/DMSOave×100% E1: • where DMSOave is the mean signal calculated from the wells that were treated with DMSO control (0% inhibition control) and Xi is the signal measured from the individual wells. EC50 values, effective concentrations that achieved 50% inhibitory effect, were determined by non-linear fitting using Graphpad Prism software (San Diego, Calif.) and equation E2 Y=Ymin+(Ymax−Ymin)/(1+10(Log EC50−X)×HillSlope) E2: • where Y represents percent inhibition values and X represents the logarithm of compound concentrations.
# Selected compounds of the invention were assayed in the HBV replication assay (BDNA assay), as described above and a representative group of these active compounds is shown in Table 3.
row,Compound,EC50
1,"CC1Cc2[nH]nc(-c3ccccc3)c2CN1C(=O)Nc1cccc(Cl)c1 (single isomer, unassigned) [317 (E2), N-(3-chlorophenyl)-6-methyl-3-phenyl-1,4,6,7-tetrahydropyrazolo[4,3-c]pyridine-5-carboxamide]",100 to 500 nM
2,CC1Cc2[nH]nc(-c3cscn3)c2CN1C(=O)Nc1ccc(F)c(Cl)c1 (centres unmarked) [917 E2],10 to 100 nM
3,"CC1c2c(-c3ccccc3)n[nH]c2CCN1C(=O)Nc1cccc(Cl)c1 (single isomer, unassigned) [318 (E2), N-(3-chlorophenyl)-4-methyl-3-phenyl-1,4,6,7-tetrahydropyrazolo[4,3-c]pyridine-5-carboxamide]",100 to 500 nM
4,CC1Cc2[nH]nc(-c3cscn3)c2CN1C(=O)Nc1ccc(F)c(C#N)c1 (centres unmarked) [922 E2],10 to 100 nM
5,CC1Cc2[nH]nc(-c3cscn3)c2CN1C(=O)Nc1ccnc(Br)c1F (centres unmarked) [921 E2],10 to 100 nM

# Same assay, conditions: Hepatitis B virus, 144 h; HepG2.2.15 cells, 10 μM, 6 days, encapsidated HBV DNA in supernatant; read-out: Activity in BDNA-assay (activity at 10 μM)
row,Compound,inhibition at 10 µM
1,O=C(COc1cccc(F)c1)N1CCc2[nH]nc(-c3ccccc3)c2C1 [Compound 143],> 50%
2,O=C(Nc1cc(Cl)ccc1F)N1CCc2[nH]nc(-c3ccccc3)c2C1 [Compound 214],> 50%
3,O=C(COc1cccc(Cl)c1)N1CCc2[nH]nc(-c3ccccc3)c2C1 [Compound 149],> 50%
4,"O=C(NCc1ccccc1)N1CCc2[nH]nc(-c3ccccc3)c2C1 [Compound 017, N-benzyl-3-phenyl-1,4,6,7-tetrahydropyrazolo[4,3-c]pyridine-5-carboxamide]",> 50%
5,Cc1cccc(OCC(=O)N2CCc3[nH]nc(-c4ccccc4)c3C2)c1 [Compound 145],> 50%
6,O=C(COc1ccc(F)cc1)N1CCc2[nH]nc(-c3ccccc3)c2C1 [Compound 144],> 50%
7,O=C(COc1ccccc1Cl)N1CCc2[nH]nc(-c3ccccc3)c2C1 [Compound 148],> 50%
8,O=C(COc1ccc(C(F)(F)F)cc1)N1CCc2[nH]nc(-c3ccccc3)c2C1 [Compound 165],> 50%
9,"O=C(OCc1ccccc1)N1CCc2[nH]nc(-c3ccccc3)c2C1 [Compound 024, benzyl 3-phenyl-1,4,6,7-tetrahydropyrazolo[4,3-c]pyridine-5-carboxylate]",> 50%
10,"Cc1ccc(-c2n[nH]c3c2CN(C(=O)Nc2cccc(Cl)c2)CC3)cc1 [Compound 281, N-(3-chlorophenyl)-3-(p-tolyl)-1,4,6,7-tetrahydropyrazolo[4,3-c]pyridine-5-carboxamide]",> 50%
11,O=C(C1COc2ccccc2O1)N1CCc2[nH]nc(-c3ccccc3)c2C1 (centres unmarked) [Compound 171],> 50%
12,"O=C(/C=C/c1ccccc1)N1CCc2[nH]nc(-c3ccccc3)c2C1 [Compound 057, (E)-3-phenyl-1-(3-phenyl-1,4,6,7-tetrahydropyrazolo[4,3-c]pyridin-5-yl)prop-2-en-1-one]",> 50%
13,Cc1ccc(OCC(=O)N2CCc3[nH]nc(-c4ccccc4)c3C2)cc1 [Compound 147],> 50%

# Same assay, conditions: Hepatitis B virus, HepG2.2.15, 144 h, HepG2.2.15 cells, 6 days, encapsidated HBV DNA in supernatant; read-out: Activity in BDNA-assay (EC50)
row,Compound,EC50
1,"COc1ccccc1-c1n[nH]c2c1CN(C(=O)Nc1cccc(Cl)c1)CC2 [Compound 327, N-(3-chlorophenyl)-3-(2-methoxyphenyl)-1,4,6,7-tetrahydropyrazolo[4,3-c]pyridine-5-carboxamide]",100 to 500 nM
2,"O=C(Nc1cccc(Cl)c1)N1CCc2[nH]nc(-c3cncnc3)c2C1 [Compound 291, N-(3-chlorophenyl)-3-pyrimidin-5-yl-1,4,6,7-tetrahydropyrazolo[4,3-c]pyridine-5-carboxamide]",100 to 500 nM
3,CC1Cc2[nH]nc(-c3cscn3)c2CN1C(=O)Nc1ccc(F)c(C#N)c1 (centres unmarked) [922 E1],10 to 100 nM
4,"COc1cccc(-c2n[nH]c3c2CN(C(=O)Nc2cccc(Cl)c2)CC3)c1 [Compound 326, N-(3-chlorophenyl)-3-(3-methoxyphenyl)-1,4,6,7-tetrahydropyrazolo[4,3-c]pyridine-5-carboxamide]",100 to 500 nM
5,CC1Cc2[nH]nc(-c3cscn3)c2CN1C(=O)Nc1cccc(Br)c1F (centres unmarked) [920 E1],10 to 100 nM
6,"CC1c2c(-c3ccccc3)n[nH]c2CCN1C(=O)Nc1cccc(Cl)c1 (single isomer, unassigned) [318 (E1), N-(3-chlorophenyl)-4-methyl-3-phenyl-1,4,6,7-tetrahydropyrazolo[4,3-c]pyridine-5-carboxamide]",100 to 500 nM
7,O=C(Nc1ccc(F)c(Cl)c1)N1CCc2[nH]nc(-c3ccccc3)c2C1 [Compound 114],10 to 100 nM
8,O=C(Nc1cccc(Cl)c1)N1CCc2[nH]nc(-c3ccn[nH]3)c2C1 [Compound 497],100 to 500 nM
9,Cc1c(Cl)cccc1NC(=O)N1CCc2[nH]nc(-c3ccccc3)c2C1 [Compound 192],100 to 500 nM
10,"O=C(Nc1cccc(Cl)c1)N1CCc2ncn(-c3ccccc3)c2C1 [Compound 542, N-(3-chlorophenyl)-3-phenyl-6,7-dihydro-4H-imidazo[4,5-c]pyridine-5-carboxamide]",500 to 1000 nM
11,"O=C(Nc1cccc(Cl)c1)N1CCc2[nH]nc(-c3ccsc3)c2C1 [Compound 562, N-(3-chlorophenyl)-3-(3-thienyl)-1,4,6,7-tetrahydropyrazolo[4,3-c]pyridine-5-carboxamide]",10 to 100 nM
12,"O=C(Nc1cccc(Cl)c1)N1CCc2[nH]nc(-c3cccnc3)c2C1 [Compound 286, N-(3-chlorophenyl)-3-(3-pyridyl)-1,4,6,7-tetrahydropyrazolo[4,3-c]pyridine-5-carboxamide]",500 to 1000 nM
13,Cc1cccc(NC(=O)N2Cc3c(-c4cscn4)n[nH]c3CC2C)c1 (centres unmarked) [923 E1],10 to 100 nM
14,"CC1Cc2[nH]nc(-c3cscn3)c2CN1C(=O)Nc1ccc(F)c(Cl)c1 (centres unmarked) [917 E1, N-(3-chloro-4-fluoro-phenyl)-6-methyl-3-thiazol-4-yl-1,4,6,7-tetrahydropyrazolo[4,3-c]pyridine-5-carboxamide]",10 to 100 nM
15,CC1Cc2[nH]nc(-c3cscn3)c2CN1C(=O)Nc1ccnc(Br)c1F (centres unmarked) [921 E1],10 to 100 nM
16,"O=C(Nc1cccc(Cl)c1)N1CCc2[nH]nc(-c3ccc(F)nc3)c2C1 [Compound 473, N-(3-chlorophenyl)-3-(6-fluoro-3-pyridyl)-1,4,6,7-tetrahydropyrazolo[4,3-c]pyridine-5-carboxamide]",500 to 1000 nM
17,Cc1cc(NC(=O)N2Cc3c(-c4cscn4)n[nH]c3CC2C)ccc1F (centres unmarked) [924 E1],10 to 100 nM
18,O=C(Nc1cccc(Cl)c1)N1CCc2[nH]nc(-c3ccncc3)c2C1 [Compound 287],100 to 500 nM

# Same assay, conditions: Hepatitis B virus, HepG2.2.15, 144 h, read-out: Activity in BDNA-assay (activity at 10 μM)
row,Compound,inhibition at 10 µM
1,"O=C(Oc1ccccc1)N1CCc2[nH]nc(-c3ccccc3)c2C1 [Compound 021, phenyl3-phenyl-1,4,6,7-tetrahydropyrazolo[4,3-c]pyridine-5-carboxylate]",> 50%
2,"COc1ccc(-c2n[nH]c3c2CN(C(=O)Nc2cccc(Cl)c2)CC3)cc1 [Compound 325, N-(3-chlorophenyl)-3-(4-methoxyphenyl)-1,4,6,7-tetrahydropyrazolo[4,3-c]pyridine-5-carboxamide]",> 50%
